From patent US20260234101A1, “COMPOUNDS, THEIR COMPOSITION AND THEIR USE AS NEMATICIDES” (priority 2023, published 2026)

Experiments:
[1] = tested on: Root-knot nematodes (Meloidogyne spp), juveniles (J2); assay: Nematocidal activity against root-knot nematodes, 24 well bioassay plate, percent mortality; type: in vivo; details: 70-100 J2 juveniles per well, 22±2° C., 70±5% RH, dead/inactive counted at 24, 48, 72 and 96 hours, read-out: Rating (% Mortality)
Description: The compound to be tested (4 mg) was dissolved in 40 μl of DMSO to make 100,000 PPM concentration stock solution. The clear solution was obtained by vortexing. The nematode suspension (250 μl) having 70-100 juveniles (J2) of Root-knot nematodes Meloidogyne spp. pipetted out to each cell of 24 well bioassay plate. Sterile water (1 ml) was pipetted out in fresh 2.5 ml Eppendorf micro-centrifuge tubes. The desired concentration (500 ppm) of the compound was prepared by adding stock solution in 2.5 ml Eppendorf micro-centrifuge tubes. For each treatment 4 replications were maintained. The bioassay plates were incubated at 22±2° C. and 70±5% RH in humidity chambers.

[2] = Stability studies: storage at room temperature and accelerated storage condition, purity estimated by HPLC; type: physicochemical; details: properly packed material; for purity estimated by HPLC, Day 14, Condition 54° C. ± 2° C. / purity estimated by HPLC, Day Zero, Condition 54° C. ± 2° C.: 54° C. ± 2° C. (accelerated storage)
Source text: The compounds of present invention were stored under conditions as shown in below table [room temperature and on accelerated storage condition (ATS)] and the purity was estimated by HPLC. The properly packed material was subjected to the conditions mentioned in the table below.

SMILES | mortality at 500 ppm [1] [%] | further results
N=C(N)NCCC[C@H](/N=C/c1cccc(F)c1O)C(=O)O [Example 5, (E)-N^2-[(3-fluoro-2-hydroxyphenyl)methylidene]-L-arginine] | 70 to 100 | 
COc1ccc(/C=N/[C@@H](CCCNC(=N)N)C(=O)O)c(OC)c1 [Example 13, (E)-N^2-[(2,4-dimethoxyphenyl)methylidene]-L-arginine] | 0 to 49 | 
N=C(N)NCCC[C@H](/N=C/c1cccc2c1OCO2)C(=O)O [Example 34, (E)-N2-[(2H-1,3-benzodioxol-4-yl)methylidene]-L-arginine] | 50 to 69 | 
N=C(N)NCCC[C@H](/N=C/c1ccc(Cl)cc1O)C(=O)O [Example 3, (E)-N^2-[(4-chloro-2-hydroxyphenyl)methylidene]-L-arginine] | 50 to 69 | 
N=C(N)NCCC[C@H](/N=C/c1c(O)cccc1Cl)C(=O)O [Example 4, (E)-N^2-[(6-chloro-2-hydroxyphenyl)methylidene]-L-arginine] | 50 to 69 | 
N=C(N)NCCC[C@H](/N=C/c1cccc(C(F)(F)F)c1)C(=O)O [Example 2, (E)-N^2-{[3-(trifluoromethyl)phenyl]methylidene}-L-arginine] | 70 to 100 | purity estimated by HPLC, Day 14, Condition 25° C. ± 2° C. [2]: 99.70; purity estimated by HPLC, Day 14, Condition 54° C. ± 2° C. [2]: 99.55; purity estimated by HPLC, Day Zero, Condition 25° C. ± 2° C. [2]: 99.71; purity estimated by HPLC, Day Zero, Condition 54° C. ± 2° C. [2]: 99.60
CSc1ccc(/C=N/[C@@H](CCCNC(=N)N)C(=O)O)cc1 [Example 19, (E)-N^2-{[4-(methylsulfanyl)phenyl]methylidene}-L-arginine] | 50 to 69 | 
N=C(N)NCCC[C@H](/N=C/c1ccco1)C(=O)O [Example 25, (E)-N^2-[(furan-2-yl)methylidene]-L-arginine] | 70 to 100 | 
N=C(N)NCCC[C@H](/N=C/c1c[nH]c2ccccc12)C(=O)O [Example 23, (E)-N^2-[(1H-indol-3-yl)methylidene]-L-arginine] | 50 to 69 | 
N=C(N)NCCC[C@H](/N=C/c1ccccc1C(F)(F)F)C(=O)O [Example 1, (E)-N^2-{[2-(trifluoromethyl)phenyl]methylidene}-L-arginine] | 70 to 100 | 
COc1ccc(/C=N/[C@@H](CCCNC(=N)N)C(=O)O)cc1O [Example 17, (E)-N^2-[(3-hydroxy-4-methoxyphenyl)methylidene]-L-arginine] | 0 to 49 | 
N=C(N)NCCC[C@H](/N=C/c1cccc2ccccc12)C(=O)O [Example 28, (E)-N2-[(naphthalen-1-yl)methylidene]-L-arginine] | 50 to 69 | 
COc1ccc(/C=N/[C@@H](CCCNC(=N)N)C(=O)O)cc1Cl [Example 18, (E)-N^2-[(3-chloro-4-methoxyphenyl)methylidene]-L-arginine] | 50 to 69 | 
N=C(N)NCCC[C@H](/N=C/c1c(O)cccc1F)C(=O)O [Example 8, (E)-N^2-[(6-fluoro-2-hydroxyphenyl)methylidene]-L-arginine] | 70 to 100 | 
C=CCc1cc(/C=N/[C@@H](CCCNC(=N)N)C(=O)O)c(O)c(OC)c1 [Example 20, (E)-N^2-{[2-hydroxy-3-methoxy-5-(prop-2-en-1-yl)phenyl]methylidene}-L-arginine] | 70 to 100 | 
N=C(N)NCCC[C@H](/N=C/c1cc(F)ccc1O)C(=O)O [Example 7, (E)-N^2-[(5-fluoro-2-hydroxyphenyl)methylidene]-L-arginine] | 70 to 100 | 
C=CCc1cccc(/C=N/[C@@H](CCCNC(=N)N)C(=O)O)c1OC [Example 32, (E)-N2-{[2-methoxy-3-(prop-2-en-1-yl)phenyl]methylidene}-L-arginine] | 50 to 69 | 

SMILES | mortality at 500 ppm [1] [%] | further results
N=C(N)NCCC[C@H](/N=C/c1cc(F)cc(Cl)c1O)C(=O)O [Example 15, (E)-N^2-[(3-chloro-5-fluoro-2-hydroxyphenyl)methylidene]-L-arginine] | 0 to 49 | 
C=CCc1cc(/C=N/[C@@H](CCCNC(=N)N)C(=O)O)c(OC)c(OC)c1 [Example 21, (E)-N^2-{[2,3-dimethoxy-5-(prop-2-en-1-yl)phenyl]methylidene}-L-arginine] | 70 to 100 | 
N=C(N)NCCC[C@H](/N=C/c1ccc2ccccc2c1)C(=O)O [Example 30, (E)-N2-[(naphthalen-2-yl)methylidene]-L-arginine] | 70 to 100 | purity estimated by HPLC, Day 14, Condition 25° C. ± 2° C. [2]: 99.65; purity estimated by HPLC, Day 14, Condition 54° C. ± 2° C. [2]: 99.45; purity estimated by HPLC, Day Zero, Condition 25° C. ± 2° C. [2]: 99.70; purity estimated by HPLC, Day Zero, Condition 54° C. ± 2° C. [2]: 99.65
N=C(N)NCCC[C@H](/N=C/c1ccc2c(c1)OCO2)C(=O)O [Example 24, (E)-N^2-[(2H-1,3-benzodioxol-5-yl)methylidene]-L-arginine] | 50 to 69 | purity estimated by HPLC, Day 14, Condition 25° C. ± 2° C. [2]: 98.80; purity estimated by HPLC, Day 14, Condition 54° C. ± 2° C. [2]: 98.90; purity estimated by HPLC, Day Zero, Condition 25° C. ± 2° C. [2]: 98.90; purity estimated by HPLC, Day Zero, Condition 54° C. ± 2° C. [2]: 98.75
Cc1cc(O)cc(O)c1/C=N/[C@@H](CCCNC(=N)N)C(=O)O [Example 12, (E)-N^2-[(2,4-dihydroxy-6-methylphenyl)methylidene]-L-arginine] | 0 to 49 | 
N=C(N)NCCC[C@H](/N=C/c1cccnc1)C(=O)O [Example 29, (E)-N2-[(pyridin-3-yl)methylidene]-L-arginine] | 50 to 69 | 
COc1cccc(/C=N/[C@@H](CCCNC(=N)N)C(=O)O)c1O [Example 9, (E)-N^2-[(2-hydroxy-3-methoxyphenyl)methylidene]L-arginine] | 0 to 49 | 
N=C(N)NCCC[C@H](/N=C/c1ccc(F)cc1O)C(=O)O [Example 6, (E)-N^2-[(4-fluoro-2-hydroxyphenyl)methylidene]-L-arginine] | 70 to 100 | 
COc1cc(/C=N/[C@@H](CCCNC(=N)N)C(=O)O)cc2c1OCO2 [Example 33, (E)-N2-[(7-methoxy-2H-1,3-benzodioxol-5-yl)methylidene]-L-arginine] | 50 to 69 | 
COc1cccc(O)c1/C=N/[C@@H](CCCNC(=N)N)C(=O)O [Example 11, (E)-N^2-[(2-hydroxy-6-methoxyphenyl)methylidene]-L-arginine] | 70 to 100 | purity estimated by HPLC, Day 14, Condition 25° C. ± 2° C. [2]: 99.00; purity estimated by HPLC, Day 14, Condition 54° C. ± 2° C. [2]: 98.85; purity estimated by HPLC, Day Zero, Condition 25° C. ± 2° C. [2]: 99.10; purity estimated by HPLC, Day Zero, Condition 54° C. ± 2° C. [2]: 99.20
Cc1ccc(/C=N/[C@@H](CCCNC(=N)N)C(=O)O)o1 [Example 26, (E)-N^2-[(5-methylfuran-2-yl)methylidene]-L-arginine] | 70 to 100 | purity estimated by HPLC, Day 14, Condition 25° C. ± 2° C. [2]: 99.10; purity estimated by HPLC, Day 14, Condition 54° C. ± 2° C. [2]: 99.00; purity estimated by HPLC, Day Zero, Condition 25° C. ± 2° C. [2]: 99.20; purity estimated by HPLC, Day Zero, Condition 54° C. ± 2° C. [2]: 99.00
N=C(N)NCCC[C@H](/N=C/c1ccsc1)C(=O)O [Example 31, (E)-N2-[(thiophen-3-yl)methylidene]-L-arginine] | 50 to 69 | 
N=C(N)NCCC[C@H](/N=C/c1ccc(CO)o1)C(=O)O [Example 27, (E)-N^2-{[5-(hydroxymethyl)furan-2-yl]methylidene}-L-arginine] | 50 to 69 | 
C=CCc1cccc(/C=N/[C@@H](CCCNC(=N)N)C(=O)O)c1O [Example 22, (E)-N2-{[2-hydroxy-3-(prop-2-en-1-yl)phenyl]methylidene}-L-arginine] | 70 to 100 | purity estimated by HPLC, Day 14, Condition 25° C. ± 2° C. [2]: 99.50; purity estimated by HPLC, Day 14, Condition 54° C. ± 2° C. [2]: 99.30; purity estimated by HPLC, Day Zero, Condition 25° C. ± 2° C. [2]: 99.60; purity estimated by HPLC, Day Zero, Condition 54° C. ± 2° C. [2]: 99.63
N=C(N)NCCC[C@H](/N=C/c1cc(OC(F)(F)F)ccc1O)C(=O)O [Example 14, (E)-N^2-{[2-hydroxy-5-(trifluoromethoxy)phenyl]methylidene}-L-arginine] | 50 to 69 | 
COc1ccc(O)c(/C=N/[C@@H](CCCNC(=N)N)C(=O)O)c1 [Example 10, (E)-N^2-[(2-hydroxy-5-methoxyphenyl)methylidene]-L-arginine] | 50 to 69 | 
COc1ccc(/C=N/[C@@H](CCCNC(=N)N)C(=O)O)cc1 [Example 16, (E)-N^2-[(4-methoxyphenyl)methylidene]-L-arginine] | 70 to 100 | 
